Measurements: BindingDB's records for patent US11555039 (Translational Drug Development, 2023)

Biological target: Rho-associated protein kinase 2 (Homo sapiens, UniProt O75116)
Test: Kinase Inhibition

Sequence of Rho-associated protein kinase 2 (O75116 whole entry): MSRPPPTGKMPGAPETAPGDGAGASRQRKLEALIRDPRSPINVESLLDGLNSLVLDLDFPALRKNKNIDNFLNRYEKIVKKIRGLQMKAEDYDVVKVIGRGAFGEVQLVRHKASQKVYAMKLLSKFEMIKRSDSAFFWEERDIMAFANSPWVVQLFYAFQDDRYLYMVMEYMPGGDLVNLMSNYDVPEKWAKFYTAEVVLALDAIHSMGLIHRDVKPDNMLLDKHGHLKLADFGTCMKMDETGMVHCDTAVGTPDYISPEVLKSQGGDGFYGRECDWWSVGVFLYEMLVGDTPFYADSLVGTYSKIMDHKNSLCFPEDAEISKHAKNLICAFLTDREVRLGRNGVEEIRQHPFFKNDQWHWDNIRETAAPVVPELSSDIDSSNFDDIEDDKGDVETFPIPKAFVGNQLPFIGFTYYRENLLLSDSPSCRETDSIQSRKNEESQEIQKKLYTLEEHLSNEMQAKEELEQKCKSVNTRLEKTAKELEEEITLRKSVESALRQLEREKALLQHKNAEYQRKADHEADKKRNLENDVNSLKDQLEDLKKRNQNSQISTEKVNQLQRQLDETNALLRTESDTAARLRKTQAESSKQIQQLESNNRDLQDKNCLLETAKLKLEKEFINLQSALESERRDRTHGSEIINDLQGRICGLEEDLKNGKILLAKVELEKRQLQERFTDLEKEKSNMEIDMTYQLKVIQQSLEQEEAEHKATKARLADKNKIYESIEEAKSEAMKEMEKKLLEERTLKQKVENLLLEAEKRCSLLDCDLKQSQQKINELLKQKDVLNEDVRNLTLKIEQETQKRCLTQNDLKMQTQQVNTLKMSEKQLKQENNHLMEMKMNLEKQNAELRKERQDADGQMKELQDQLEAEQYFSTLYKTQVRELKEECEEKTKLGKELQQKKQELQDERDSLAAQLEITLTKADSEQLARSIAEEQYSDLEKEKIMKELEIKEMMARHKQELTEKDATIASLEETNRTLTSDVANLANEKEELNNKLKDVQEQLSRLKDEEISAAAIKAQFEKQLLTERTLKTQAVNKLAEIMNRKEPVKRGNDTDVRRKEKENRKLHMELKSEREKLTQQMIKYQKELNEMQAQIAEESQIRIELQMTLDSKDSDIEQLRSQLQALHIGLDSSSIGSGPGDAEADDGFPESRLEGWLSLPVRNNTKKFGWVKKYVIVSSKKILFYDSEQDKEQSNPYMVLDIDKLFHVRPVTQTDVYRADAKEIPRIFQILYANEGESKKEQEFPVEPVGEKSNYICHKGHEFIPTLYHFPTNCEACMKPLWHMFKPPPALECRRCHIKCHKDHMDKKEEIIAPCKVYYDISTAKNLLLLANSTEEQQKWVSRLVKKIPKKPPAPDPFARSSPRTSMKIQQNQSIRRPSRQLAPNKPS

Compound `CCOc1ccc(NC(=O)c2cccc([C@@H](CO)NC(=O)c3ccc(-c4ccncc4)cc3)c2)cn1` [US11555039, Compound ID 93] has an IC50 of 0.51 nM.
